According to US20080234199A1, “Chemical Compounds” (Smithkline Beecham Corporation, priority 2005, published 2008):

Compound | melting point
CCC(=C(c1ccc(O)cc1)c1ccc(O)cc1)c1ccc(/C=C/C(=O)O)cc1 [Example 1, (2E)-3-{4-[1-ethyl-2,2-bis(4-hydroxyphenyl)ethenyl]phenyl}-2-propenoic acid] | 280 to 281 °C
CCC(=C(c1ccc(O)cc1)c1ccc(O)cc1)c1ccc(OCCO)c(OC)c1 [Example 27, 4,4′-{2-[4-[(2-hydroxyethyl)oxy]-3-(methyloxy)phenyl]-1-butene-1,1-diyl}diphenol] | 158 to 159 °C
